Assay results: patent publication US20250263376A1, “(E)-N-CINNAMOYLAMINOALKANOLS WITH MELANOGENESIS INHIBITORY ACTIVITY” (Uniwersytet Jagiellonski, priority 2024, published 2025)
Like-named read-outs stand apart in the source and are kept apart here.

Key:
[1] = tested on: human reconstructed epidermis Episkin; experiment: Skin irritation test in reconstructed human epidermis Episkin; assay type: cell-based; conditions: 15 min exposure
Text: Skin Irritation Tests in a Reconstructed Human Epidermis Model (Episkin™)

[2] = tested on: tyrosinase; conditions: cited from earlier work; for mechanism of tyrosinase inhibition: literature [6,7]
[3] = tested on: tyrosinase; conditions: literature [11], cited from earlier work
[4] = cream, 7-day application before UV exposure, compared to untreated skin; literature [8]; cited from earlier work
[5] = tested on: Balb/c 3T3 murine fibroblast cell line; experiment: Phototoxicity, neutral red uptake in Balb/c 3T3 fibroblasts
Experimental: d) Phototoxicity Assessment Using the Balb/c 3T3 Murine Fibroblast Cell Line
Balb/c 3T3 cells, which are an immortalized murine fibroblast cell line, were purchased at ATTC and cultured in the medium recommended by the manufacturer (DMEM GlutaMAX, newborn calf serum (BCS), antibiotics). After multiplication, cells were placed in 96-well plates, which were incubated for 24 hours, after which all wells of the plates were washed with 150 μL of balanced salt solution (HBSS). Then, after drying the plates, 100 μL of a solution of the tested compounds in HBSS with 2% FBS was added to each well and incubated for an hour. After this time, some of the plates were irradiated using the Suntest CPS+sunlight simulator from Atlas with appropriate filters cutting off radiation with a wavelength <320 nm (UVA radiation intensity 5 J/cm^2). The second part of the plates was placed in radiation-free conditions for the same period of time. After the exposure time, the liquid was removed from all plates and the wells were washed twice with 150 μL of HBSS, then supplemented with fresh culture medium and incubated for 24 hours in an incubator (37° C., 5% CO2). Viability was assessed in the neutral red uptake test, which is based on the ability of the dye to penetrate only into living cells. Dye uptake was confirmed by absorbance measurement at 540 nm. […] The appropriate coefficients were also calculated: mean phototoxic effect (MPE) and photoirritation factor (PIF). PIF is the ratio of the IC50 values of unirradiated to irradiated cells, while MPE is based on the comparison of concentration-response curves.

[6] = tested on: reconstituted human epidermis EpiDerm; conditions: 21 h, 0.01 %
Experimental: Phototoxicity Studies in a Model of Reconstructed Human Epidermis.
An epidermis with an area of 0.6 cm^2 was used. After receiving the tissue, the inserts were transferred to fresh medium and incubated in an incubator (5% CO2, 37° C.). All work during epidermis culture and application of the tested compounds and formulations was carried out in a laminar air flow chamber, using aseptic principles and sterile reagents and utensils. […] The applied solutions and formulation were spread on the surface of the inserts using a sterile glass bulb headed Pasteur pipette. The plates were incubated in the incubator for 21 hours, after which the inserts were transferred to new 6-well plates with 0.9 mL DBPS. 1 plate was exposed to UVA radiation at a dose of 6 J/cm^2 using a solar light simulator (Solar Simulator, Atlas) as its source (+UVA plate). The second plate was placed in a dark place outside the incubator for the same period of time (−UVA plate). After exposure, inserts from both plates were rinsed with DPBS, dried with a sterile cotton bud and placed in new plates containing 0.9 mL of fresh growth medium and incubated for 21 hours. […] After this time, the formed formazan was extracted into isopropanol and the absorbance of all samples was read at 270 nm.

[7] = Lipophilicity coefficient RM0 by reversed phase thin layer chromatography; assay type: physicochemical; conditions: RP-18 TLC, methanol/phosphate buffer pH=7.4
Experimental: Confirmation of the identity and purity of the obtained compounds consisted in the registration and interpretation of 1H NMR and 13C NMR spectra (the spectra were recorded using an ECZR 500 MHZ (JEOL) series FT-NMR spectrophotometer), as well as the registration and interpretation of LC-MS spectra (the spectra were recorded using Acquita UPLC system (Waters) coupled with a Waters TQD mass spectrometer). The melting point was measured using the open capillary method in the IA9300 device (Electrothermal). The lipophilicity coefficient RM0 was determined by reversed phase thin layer chromatography. In the study, aluminum plates 20×20 cm covered with modified silica gel RP-18 F254 (Merck) were used as the solid phase. The mobile phase consisted of solutions of methanol and 100 mM phosphate buffer (pH=7.4), characterized by a variable methanol content ranging from 95 to 65% (v/v). The tested compounds were dissolved in methanol to obtain solutions with a concentration of 1 mg/mL. Then, […] of the solutions prepared in this way were transferred to the starting line on aluminum plates, which were then placed in chromatographic chambers previously saturated with mobile phase vapors for at least 1 hour. All activities, including the development of chromatograms, were carried out at room temperature. After developing the chromatograms to approximately 1-2 cm from the end of the plate, the plates were dried and then the distance traveled by the tested compounds was visualized under UV light (λ=254 nm). The experiment was performed in duplicate for the specified conditions. For all samples, Rf was calculated according to the formula Rf=a/b, where a—the distance traveled by the tested compound, b—the distance traveled by the mobile phase. Then, the RM parameter was calculated for all samples according to the formula RM=log (1/Rf−1), obtaining a linear relationship between the RM values and the methanol concentration in the mobile phase. The log P coefficient was also calculated using the following computer programs: ACD/ChemSketch 2020.1.2 and ChemDraw 20.0.0.41.

[8] = target: T1, tyrosinase from mushroom (Agaricus bisporus, UniProt C7FF04); experiment: Inhibition of commercial mushroom tyrosinase, substrate L-DOPA; assay type: biochemical; conditions: 500 μM; read-out: Tyrosinase inhibition with L-DOPA [%]
Experimental: (§1) Studies on the Inhibition of the Activity of Commercial Tyrosinase from Mushroom (Sigma: T3824)
(§2) The following substrates were used for the enzymatic reaction: L-tyrosine and L-3,4-dihyroxyphenylalanine (L-DOPA). Both substrates were used in independent experiments. According to the literature, the use of L-DOPA enables the assessment of tyrosinase diphenolase activity, and L-tyrosine—the tyrosinase monophenolase activity. The determinations were performed in 96-well plates, in each well there was placed: 170 μL or 127.5 μL of 50 mM phosphate buffer (pH=6.8) with tyrosinase (1U/well or 3U/well) and 10 μL of a solution of the tested compound in DMSO (the final concentration in the well was 500 μM, 250 μM or 125 μM). The negative control used 10 u L of pure solvent (DMSO). To initiate the reaction, an appropriate substrate was added: L-tyrosine (62.5 μL of solution in phosphate buffer) or L-DOPA (20 μL of solution in phosphate buffer). After a 25-minute incubation, the absorbance was measured at 475 nm using a microplate reader. The percentage of inhibition of tyrosinase activity was calculated using the formula: [(AC−AT)/[…], where AC—is the absorbance of the negative control, AT—is the absorbance of the sample containing the tested compound.

[9] = target: T1, tyrosinase from mushroom; experiment: Inhibition of commercial mushroom tyrosinase, substrate L-tyrosine; assay type: biochemical; conditions: 500 μM; read-out: Tyrosinase inhibition with L-tyrosine [%]
Experimental: as §1, §2

[10] = tested on: B16-F10 murine melanoma cell line; experiment: Cytotoxicity (MTT) in B16-F10 murine melanoma cells; assay type: cell-based; conditions: 48 h
Experimental: Cytotoxicity Assessment in the B16-F10 Murine Melanoma Cell Line (ATTC CRL-6745)—Preliminary Safety Assessment for Subsequent Studies
In order to determine safe doses of compounds for testing the inhibition of melanogenesis in a murine melanoma cell line, cytotoxicity tests were performed. Cytotoxicity was determined by the colorimetric method using MTT ([3-(4,5-dimethyl-2-thiazolyl)-2,5-diphenyl-2H-tetrazolium bromide, Sigma M5655). For this purpose, cells were transferred to 96-well plates in an amount of 5000/well. After 24 h of culture in an incubator in F10-Ham medium with 1% FBS, the tested compounds at various concentrations were added to the wells together with fresh medium. DMSO was added to the medium in a negative control. The MTT test was performed after further culture for 48 h. Then the medium was removed and the formed formazan crystals were dissolved in DMSO. The absorbance was measured at 570 nm in a plate reader and the result was compared to the control (DMSO), which was 100%. The percentage of viability was calculated using the formula: [AT/AC*100], where AT is the absorbance of the test sample, AC—absorbance of the control sample.

[11] = tested on: S. typhimurium TA98; experiment: Ames microplate test, TA98; assay type: cell-based, Salmonella typhimurium; conditions: without S9
Experimental: (§3) Bacteria were grown overnight in growth medium.

[12] = tested on: S. typhimurium TA100; experiment: Ames microplate test, TA100; assay type: cell-based, Salmonella typhimurium; conditions: without S9
Experimental: (§4) The study used the Ames microplate test (Ames MPF™ Penta 2 by Xenometrix, Allschwil, Switzerland). Growth medium, exposure medium, indicator medium, positive controls, hepatic microsomal fraction, NADP, glucose-6-phosphate, Salmonella typhimurium and Escherichia coli strains were components of the purchased experimental kit. Bacteria were grown overnight in growth medium. They were then exposed to the test compound at the appropriate concentration in exposure medium without or with the rat microsomal fraction S9 in 24-well plates for 90 min at 37° C. with shaking. Then, indicator medium was added to the wells and pipetted into 384-well plates, which were incubated for 48 hours at 37° C. without shaking. Results were assessed by counting the wells in which the medium turned yellow for each experimental condition.

[13] = tested on: S. typhimurium TA1537; experiment: Ames microplate test, TA1537; assay type: cell-based, Salmonella typhimurium; conditions: without S9
Experimental: as §3

[14] = tested on: CHO-K1 cells; experiment: Cytotoxicity (MTT) in CHO-K1 cells before the micronucleus test; assay type: cell-based, Chinese hamster; conditions: 24 hours
Experimental: The assay was performed using a Chinese hamster ovary cell line (CHO-K1) purchased from the American Type Culture Collection (ATCC). The cells were cultured in F-12K medium with the addition of 10% fetal bovine serum (FBS) and antibiotics (streptomycin/penicillin) in an incubator at 37° C. and 5% CO2 concentration). Before the actual micronucleus test, a cytotoxicity assessment was performed to ensure that the actual test was performed only at safe concentrations. For this purpose, cells were transferred to 96-well plates and incubated with the tested compounds for 24 hours. After this time, the MTT test was performed and cell viability was assessed in comparison to the control group (cells cultured with DMSO at the same concentration as in the case of the tested samples).

[15] = tested on: S. typhimurium TA1535; experiment: Ames microplate test, TA1535; conditions: without S9;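 also: bacteria exposed 90 min at 37 °C in exposure medium, then 48 h in indicator medium in 384-well plates, yellow (revertant) wells counted per condition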
[16] = tested on: E. coli WP2; experiment: Ames microplate test, E. coli WP2; conditions: without S9;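 also: bacteria exposed to compound for 90 min at 37 °C in 24-well plates, then transferred with indicator medium to 384-well plates and incubated 48 h before yellow well counting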
Experimental: as §4

[17] = literature [6], read-out: IC50, tyrosinase diphenolase activity
[18] = literature [7], read-out: IC50, tyrosinase inhibition

T1 sequence (C7FF04 2-392): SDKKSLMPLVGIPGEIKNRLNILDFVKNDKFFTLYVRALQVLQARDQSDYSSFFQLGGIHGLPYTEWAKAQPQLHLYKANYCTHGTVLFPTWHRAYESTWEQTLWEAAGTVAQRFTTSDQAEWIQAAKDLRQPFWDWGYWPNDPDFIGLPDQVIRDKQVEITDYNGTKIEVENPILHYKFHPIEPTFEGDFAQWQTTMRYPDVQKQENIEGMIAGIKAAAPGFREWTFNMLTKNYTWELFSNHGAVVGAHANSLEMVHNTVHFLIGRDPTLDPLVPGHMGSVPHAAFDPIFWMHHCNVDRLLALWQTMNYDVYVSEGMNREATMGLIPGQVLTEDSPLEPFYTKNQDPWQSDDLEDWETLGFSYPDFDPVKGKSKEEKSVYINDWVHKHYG
T1 sequence (G1K3P4 entry or part of it, further chain): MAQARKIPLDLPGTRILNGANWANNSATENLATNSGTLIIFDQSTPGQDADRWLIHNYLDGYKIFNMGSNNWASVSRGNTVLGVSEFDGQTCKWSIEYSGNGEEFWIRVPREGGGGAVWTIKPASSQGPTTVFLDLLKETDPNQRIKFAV

CCCCCCCCCCCCOS(=O)(=O)[O-].[Na+] [SDS, sodium dodecyl sulphate]
IL-1α concentration in the culture medium ([1]; 42 h incubation, compounds as PEG400 solutions 26 mg/cm^2, SDS 5% aqueous): >250 pg/mL | tissue viability ([1]; compared to the negative control (PBS and PEG400), 5% aqueous SDS): 23.8%

O=C(O)C=Cc1ccccc1 [Cinnamic acid]
mechanism of tyrosinase inhibition [2]: non-competitive inhibitor

CCOC(=O)[C@H](Cc1ccccc1)NC(=O)/C=C/c1ccc(O)c(OC)c1 [N-[3-(4-hydroxy-3-methoxyphenyl)-1-oxo-2-propen-1-yl]-L-phenylalanine ethyl ester]
type of tyrosinase inhibition [3]: mixed type of inhibition | IC50 ([3]; read-out: IC50, tyrosinase inhibition): 0.185 ± 0.005 µM

O=C(O)C=Cc1ccc(O)cc1 [4-Hydroxycinnamic acid]
IC50 [2, 17]: 500 µM | inhibition of erythema formation [4]: 77%

O=C(O)C=Cc1ccccc1Cl [2-Chlorocinnamic acid]
mechanism of tyrosinase inhibition [2]: reversible non-competitive mechanism | IC50 [2, 18]: 765 µM

COc1ccc(C=CC(=O)O)cc1 [4-methoxycinnamic acid]
IC50 [2, 17]: 420 µM

O=C(O)C=Cc1ccc(Cl)cc1Cl [2,4-dichlorocinnamic acid]
mechanism of tyrosinase inhibition [2]: reversible non-competitive mechanism | IC50 [2, 18]: 295 µM

CN(C)CCCN1c2ccccc2Sc2ccc(Cl)cc21 [Chlorpromazine, reference compound]
phototoxic potential [5]: clearly indicate its phototoxic potential | MPE (mean phototoxic effect) ([5]; mouse, 1 h): 0.499 | PIF (photoirritation factor) ([5]; mouse, 1 h): 25.618 | Viability [% relative to water] ± SD, +UVA [6]: 26.97 ± 6.05 % relative to water | Viability [% relative to water] ± SD, −UVA [6]: 99.52 ± 9.41 % relative to water

CC(CO)NC(=O)/C=C/c1ccc(Cl)cc1 (centres unmarked) [Compound A-102, (2E)-3-(4-chlorophenyl)-N-(1-hydroxypropan-2-yl)prop-2-enamide]
RM0 [7]: 2.12 | inhibition at 500 µM [8]: 53 ± 1.99% | inhibition at 500 µM [9]: 75.5 ± 1.8% | Cytotoxicity study in B16F10 cells, % viability ([10]; 150 μM): 80.6% | Cytotoxicity study in B16F10 cells, % viability ([10]; 200 μM): 83.5% | Cytotoxicity study in B16F10 cells, % viability ([10]; 250 μM): 75.7% | Increase in the number of yellow wells compared to the reference level, TA98 ([11]; 0.5 mM): 0.24 | Increase in the number of yellow wells compared to the reference level, TA98 ([11]; 1.0 mM): 0.24 | Increase in the number of yellow wells compared to the reference level, TA98 ([11]; 2.0 mM): 0.35 | Increase in the number of yellow wells compared to the reference level, TA100 ([12]; 0.5 mM): 1.08 | Increase in the number of yellow wells compared to the reference level, TA100 ([12]; 1.0 mM): 0.75 | Increase in the number of yellow wells compared to the reference level, TA100 ([12]; 2.0 mM): 0.92 | Increase in the number of yellow wells compared to the reference level, TA1537 ([13]; 0.5 mM): 0.33 | Increase in the number of yellow wells compared to the reference level, TA1537 ([13]; 1.0 mM): 0.00 | Increase in the number of yellow wells compared to the reference level, TA1537 ([13]; 2.0 mM): 1.00 | % Viability [mean], CHO-K1 ([14]; 100 μM): 84.7% | % Viability [mean], CHO-K1 ([14]; 150 μM): 69.9% | % Viability [mean], CHO-K1 ([14]; 200 μM): 87.2% | Increase in the number of yellow wells compared to the reference level, TA1535 ([15]; 0.5 mM): 0.55 | Increase in the number of yellow wells compared to the reference level, TA1535 ([15]; 1.0 mM): 0.14 | Increase in the number of yellow wells compared to the reference level, TA1535 ([15]; 2.0 mM): 0.89 | Increase in the number of yellow wells compared to the reference level, E. coli WP2 ([16]; 0.5 mM): 0.48 | Increase in the number of yellow wells compared to the reference level, E. coli WP2 ([16]; 1.0 mM): 1.03 | Increase in the number of yellow wells compared to the reference level, E. coli WP2 ([16]; 2.0 mM): 0.79
